In patent US12366576B2, “Compositions, assays, and methods for direct modulation of fatty acid metabolism” (Dana-Farber Cancer Institute, Inc., priority 2016, dated 2025):
Bridge positions count the residues as written; N and C are the ends. Square brackets hold non-standard residues; d marks the D form. Ends that are not written are not given here. Peptide text beside a SMILES is read from it. S5 = C=CCCC[C@](C)(N)C(=O)O

Columns and labels:
endogenous MCL-1 = experiment: Biotinylated SAHB pulldown from MEF lysates, anti-MCL-1 Western analysis; format: binding, mouse; conditions: for effect of alanine mutation on biotinylated MCL-1 SAHBD interaction with MCL-1: pull-downs from MEF lysates; for summary of binding properties: binding to MCL-1: pull-downs
Procedure: An exploratory proteomics analysis was conducted to identify proteins that interact with the MCL-1 BH3 domain helix. An extensive library of MCL-1 stapled BH3 peptides (FIG. 2) was generated to both identify novel protein interactors by mass spectrometry and then deploy the stapled peptide constructs as novel probes to dissect and pharmacologically modulate the identified protein interactors and associated signaling pathways. As an example, an N-terminally biotinylated stapled peptide designed based on the sequence of MCL-1's BH3 domain (Btn-MCL-1 SAHBD), or vehicle, was incubated with wild-type mouse embryonic fibroblast (MEF) lysates, followed by high stringency streptavidin capture. To validate the proteomics workflow and ensure that Btn-MCL-1 SAHBD could, in fact, engage protein interactors in a lysate, eluates were first run on a gel for anti-MCL-1 Western analysis. […] For mass spectrometry (MS) analysis, eluates were run on a reducing/denaturing gel followed by Coomassie staining (FIG. 4) and in-gel digestion was performed before injection on the instrument.
The binding determinants for the MCL-1 BH3/VLCAD interaction were investigated by generating a series of biotinylated MCL-1 SAHBD alanine point mutants (FIG. 18A) and performing streptavidin pull-downs from MEF lysates, followed by VLCAD and MCL-1 western analysis of the resulting eluates. […] Native alanines and residues not mutated are colored white.
Wild-type MEFs were trypsinized, washed once with cold PBS, and lysed on ice with NP-40 lysis buffer (50 mM Tris, pH 7.4, 150 mM NaCl, 0.5% (v/v) NP-40, complete protease inhibitor pellet (Roche)) using 1 ml of lysis buffer for every 10 million cells lysed. Cellular debris was pelleted at 14,000 g for 10 min at 4° C., and the supernatant was quantified using the BCA Protein Assay Kit (Thermo Fisher Scientific). 2 mg of lysate per pulldown were then exposed to 50 μL of pre-equilibrated High Capacity Streptavidin Agarose beads (Thermo Fisher Scientific). […] The beads were then pelleted and washed with NP-40 lysis buffer three times before eluting the protein sample from the beads by heating at 70° C. for 10 min in SDS loading buffer. Samples were then subjected to electrophoresis and either Western analysis or Coomassie stain (SimplyBlue Safe Stain, Thermo Fisher Scientific). […] Coomassie stained gels were then processed for proteomics analysis (see below). Biotinylated SAHB pulldowns of recombinant protein were performed as above incubating 5 nmol of SAHB with 10 pmol of rVLCAD in 500 μL total volume. Densitometry analyses were performed using ImageJ software.

MCAD = target: T1, MCAD (Mus musculus, UniProt P45952); experiment: Biotinylated SAHB pulldown from MEF lysates, MCAD Western analysis; format: binding; conditions: wild-type MEF lysates
T1 construct: endogenous in cells; host or cells: wild-type mouse embryonic fibroblasts (lysate)
T1 sequence (P45952 26-421): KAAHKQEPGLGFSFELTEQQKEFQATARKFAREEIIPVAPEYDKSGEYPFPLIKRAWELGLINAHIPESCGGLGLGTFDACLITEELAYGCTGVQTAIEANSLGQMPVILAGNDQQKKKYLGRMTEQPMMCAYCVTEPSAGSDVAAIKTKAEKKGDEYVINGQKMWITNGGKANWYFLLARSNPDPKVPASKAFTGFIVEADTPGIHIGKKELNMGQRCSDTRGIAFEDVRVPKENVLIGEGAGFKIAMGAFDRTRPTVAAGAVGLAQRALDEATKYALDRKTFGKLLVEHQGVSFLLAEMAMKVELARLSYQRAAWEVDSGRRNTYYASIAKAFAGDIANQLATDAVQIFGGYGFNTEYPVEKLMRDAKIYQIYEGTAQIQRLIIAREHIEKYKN
Description: To validate the MS result, the pulldowns were repeated and eluates run on a gel for anti-VLCAD Western blot analysis. […] All peptides faithfully recapitulated native BH3-binding propensities for endogenous MCL-1 protein (FIG. 8). The eluates were then probed for the other members of the acyl-CoA dehydrogenase family that manifest shorter fatty acid substrate specificities. MCL-1 SAHBD was able to pull down VLCAD, but not MCAD or SCAD (FIG. 9). Because the traditional MCL-1 staple location differs from that of the BIM, BID, and BAD SAHBs, it was important to confirm that the observed VLCAD binding specificity was due to BH3 sequence selectivity, not staple position. A BIM SAHB with the traditional MCL-1 staple (BIM SAHBF), and a MCL-1 stapled peptide with the traditional BIM staple (MCL-1 SAHBA), were generated. […]
Wild-type MEFs were trypsinized, washed once with cold PBS, and lysed on ice with NP-40 lysis buffer (50 mM Tris, pH 7.4, 150 mM NaCl, 0.5% (v/v) NP-40, complete protease inhibitor pellet (Roche)) using 1 ml of lysis buffer for every 10 million cells lysed. Cellular debris was pelleted at 14,000 g for 10 min at 4° C., and the supernatant was quantified using the BCA Protein Assay Kit (Thermo Fisher Scientific). […]

Compound | effect of alanine mutation on biotinylated MCL-1 SAHBD interaction with MCL-1 (endogenous MCL-1) | summary of binding properties: binding to MCL-1 (endogenous MCL-1) | pull down of MCAD from cellular lysates (MCAD)
CC(=O)N[C@@H](CCCNC(=N)N)C(=O)N[C@@H](CCCCN)C(=O)N[C@@H](C)C(=O)N[C@@H](CC(C)C)C(=O)N[C@@H](CCC(=O)O)C(=O)N[C@H](C(=O)N[C@@H](CC(C)C)C(=O)N[C@@H](CCCNC(=N)N)C(=O)N[C@@H](CCCNC(=N)N)C(=O)N[C@H](C(=O)NCC(=O)N[C@@H](CC(=O)O)C(=O)NCC(=O)N[C@@H](C)C(=O)N[C@@]1(C)CCCC=CCCC[C@@](C)(C(=O)N[C@H](C(=O)N[C@@H](C)C(=O)N[C@@H](Cc2ccccc2)C(N)=O)[C@@H](C)O)NC(=O)[C@H](Cc2c[nH]cn2)NC(=O)[C@H](CC(N)=O)NC(=O)[C@H](CCCNC(=N)N)NC1=O)C(C)C)[C@@H](C)O [V220A] (Ac-RKALETLRRVGDGA[S5]RNH[S5]TAF-NH2; staple 15-19; N-terminus and C-terminus assumed) | uniquely disruptive | weakly or not | 
D218A: biotinylated MCL-1 SAHBD alanine point mutant D218A (RKALETLRRVGAGV[S5]RNH[S5]TAF; staple 15-19; also: biotinylated, place not given here) |  | Binds | 
F228A: biotinylated MCL-1 SAHBD alanine point mutant F228A (RKALETLRRVGDGV[S5]RNH[S5]TAA; staple 15-19; also: biotinylated, place not given here) |  | Does not bind | 
L213A: biotinylated MCL-1 SAHBD alanine point mutant L213A (RKALETARRVGDGV[S5]RNH[S5]TAF; staple 15-19; also: biotinylated, place not given here) | disrupted | Does not bind | 
MCL-1 SAHBD: hydrocarbon-stapled peptide mimicking the MCL-1 BH3 domain (Stabilized Alpha-Helix of BCL-2 Domain), SEQ ID NO:19 (RKALETLRRVGDGV[S5]RNH[S5]TAF; staple 15-19) |  | Binds | not
R207A: biotinylated MCL-1 SAHBD alanine point mutant R207A (AKALETLRRVGDGV[S5]RNH[S5]TAF; staple 15-19; also: biotinylated, place not given here) |  | diminished binding | 
R214A: biotinylated MCL-1 SAHBD alanine point mutant R214A (RKALETLARVGDGV[S5]RNH[S5]TAF; staple 15-19; also: biotinylated, place not given here) |  | Does not bind | 
R215A: biotinylated MCL-1 SAHBD alanine point mutant R215A (RKALETLRAVGDGV[S5]RNH[S5]TAF; staple 15-19; also: biotinylated, place not given here) |  | Binds | 
